In general, IC50 refers to the concentration at which inhibition is half-maximal. Lower therefore signals greater potency.

The results in this text go back to US9169270B2, “1-phenyl-substituted heterocyclyl derivatives and their use as prostaglandin D2 receptor modulators” (Actelion Pharmaceuticals Ltd., priority 2012, dated 2015).

The target of the assay is hCRTH2 receptor (Homo sapiens (Human), UniProt Q9Y5Y4). The experiment in a line: hCRTH2 receptor membranes radioligand (3H-PGD2) displacement assay. Conditions: hCRTH2 membrane fragments, Binding-Buffer with 0.1% BSA. The method, then: Biological Assays: Preparation of hCRTH2 Receptor Membranes and Radioligand Displacement Assay:
First, recombinant HEK293-hCRTH2 cells were detached from culture plates into 5 ml buffer A/plate (Buffer A: 5 mM Tris, 1 mM MgCl2-6H2O pH=7.4) using a rubber policeman. Cells were then transferred into centrifugation tubes and centrifuged for 5 min at 400 g. The cell pellet was resuspended in the same buffer and tubes were frozen at −80° C. Cells were thawed and membrane fragments were generated by homogenization using a polytron homogenizer (30 seconds). The membrane fragments were then centrifuged at 3000 g for 20 minutes and resuspended in buffer C (Buffer C: 75 mM Tris, 25 mM MgCl2, 250 mM Saccharose pH 7.4). Aliquots of membrane fragments were stored at −20° C.
Binding assay was performed in a final assay volume of 250 μl. First, 25 μl of test compound, previously diluted in Binding-Buffer (Binding-Buffer: 50 mM Tris-Base, 100 mM NaCl, 1 mM EDTA, 0.1% BSA (protease free), 0.01% NaN3, 10 mM MnCl2, pH 7.0) was placed into each well. […] Binding assay was started by addition of 100 μl CRTH2 membrane fragments, reaching a final concentration of 20 μg/well. For non-specific binding, PGD2 was added to the reaction mixture to […] final concentration. This assay mix was incubated for 90 minutes at room temperature and then filtered through a GF/C filter 96-well plate which was pre-soaked for 3 hours in 0.5% polyethyleneimine (PEI). The filter-wells were washed three times with ice cold Binding-Buffer. Then, 40 μl of Microscint-40 (Packard) was added to each well and the retained radioactivity quantified in a Topcount (Packard).

hCRTH2 receptor, sequence (Q9Y5Y4 whole entry, the tested form may be a part): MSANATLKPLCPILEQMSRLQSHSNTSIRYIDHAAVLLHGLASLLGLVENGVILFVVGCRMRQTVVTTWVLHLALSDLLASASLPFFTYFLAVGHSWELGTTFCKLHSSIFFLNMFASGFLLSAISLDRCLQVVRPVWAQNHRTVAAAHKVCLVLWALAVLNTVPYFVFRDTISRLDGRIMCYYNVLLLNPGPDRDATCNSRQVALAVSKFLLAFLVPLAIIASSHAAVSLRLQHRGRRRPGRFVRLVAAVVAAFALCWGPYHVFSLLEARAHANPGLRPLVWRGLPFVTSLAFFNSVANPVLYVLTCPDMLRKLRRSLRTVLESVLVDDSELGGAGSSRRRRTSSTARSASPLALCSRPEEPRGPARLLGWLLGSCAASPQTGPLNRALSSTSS

The molecule `CCC(C)COC(=O)N1CCc2ncsc2[C@H]1c1cc(Cl)ccc1OCC(=O)O` (mixture of isomers) [Example 70, (R)-4-(2-Carboxymethoxy-5-chloro-phenyl)-6,7-dihydro-4H-thiazolo[5,4-c]pyridine-5-carboxylic acid (±)-2-methyl-butyl ester] yielded an IC50 of 2.8 nM.
In turn, `O=C(O)COc1ccc(Cl)cc1C1c2scnc2CCN1C(=O)/C=C/c1ccc(F)cc1F` (racemic) [Example 57, (±)-(4-Chloro-2-{5-[(E)-3-(2,4-difluoro-phenyl)-acryloyl]-4,5,6,7-tetrahydro-thiazolo[5,4-c]pyridin-4-yl}-phenoxy)-acetic acid] had an IC50 of 3.5 nM.
Molecule `O=C(O)COc1ccc(Cl)cc1C1c2scnc2CCN1C(=O)Cc1cccc2ccccc12` (racemic) [Example 50, (±)-{4-Chloro-2-[5-(2-naphthalen-1-yl-acetyl)-4,5,6,7-tetrahydro-thiazolo[5,4-c]pyridin-4-yl]-phenoxy}-acetic acid] showed an IC50 of 12.6 nM.
Regarding `CC(C)(C)CC(=O)N1CCc2ncsc2C1c1cc(Cl)ccc1OCC(=O)O` (racemic) [Example 40, (±)-{4-Chloro-2-[5-(3,3-dimethyl-butyryl)-4,5,6,7-tetrahydro-thiazolo[5,4-c]pyridin-4-yl]-phenoxy}-acetic acid], the IC50 amounted to 950 nM.
The result for `CC(C)c1nc2c(s1)C(c1cc(Cl)ccc1OCC(=O)O)N(C(=O)OCc1ccccc1)CC2` (racemic) [Example 13, (±)-4-(2-Carboxymethoxy-5-chloro-phenyl)-2-isopropyl-6,7-dihydro-4H-thiazolo[5,4-c]pyridine-5-carboxylic acid benzyl ester] reads 64.8 nM; that for `O=C(O)COc1ccc(Cl)cc1[C@@H]1c2scnc2CCN1C(=O)OCc1ccc(F)cc1` [Example 61, (R)-4-(2-Carboxymethoxy-5-chloro-phenyl)-6,7-dihydro-4H-thiazolo[5,4-c]pyridine-5-carboxylic acid 4-fluoro-benzyl ester], 1.2 nM.
Turning to `O=C(O)COc1ccc(Cl)cc1C1c2scnc2CCN1C(=O)NCc1cccc(F)c1` (racemic) [Example 2, (±)-{4-Chloro-2-[5-(3-fluoro-benzylcarbamoyl)-4,5,6,7-tetrahydro-thiazolo[5,4-c]pyridin-4-yl]-phenoxy}-acetic acid], the concentration for half-maximal inhibition (IC50) amounted to 38.9 nM.
The molecule `O=C(O)COc1ccc(Cl)cc1C1c2scnc2CCN1C(=O)COCc1ccccc1Cl` (racemic) [Example 31, (±)-(4-Chloro-2-{5-[2-(2-chloro-benzyloxy)-acetyl]-4,5,6,7-tetrahydro-thiazolo[5,4-c]pyridin-4-yl}-phenoxy)-acetic acid] returned an IC50 of 5 nM.
Molecule `CCn1nc(C)cc1CCOC(=O)N1CCc2ncsc2C1c1cc(Cl)ccc1OCC(=O)O` (racemic) [Example 91, (±)-4-(2-Carboxymethoxy-5-chloro-phenyl)-6,7-dihydro-4H-thiazolo[5,4-c]pyridine-5-carboxylic acid 2-(2-ethyl-5-methyl-2H-pyrazol-3-yl)-ethyl ester] showed an IC50 of 3.7 nM.
With `Cc1nc2c(s1)[C@@H](c1cc(Cl)ccc1OCC(=O)O)N(C(=O)[C@@H]1C[C@H]1c1ccccc1)CC2` [Example 10, {4-Chloro-2-[(R)-2-methyl-5-((1R,2R)-2-phenyl-cyclopropanecarbonyl)-4,5,6,7-tetrahydro-thiazolo[5,4-c]pyridin-4-yl]-phenoxy}-acetic acid], the IC50 was determined as 1.5 nM.
Molecule `O=C(O)COc1ccc(Cl)cc1C1c2scnc2CCN1C(=O)NCc1ccccc1Cl` (racemic) [Example 108, (±)-{4-Chloro-2-[5-(2-chloro-benzylcarbamoyl)-4,5,6,7-tetrahydro-thiazolo[5,4-c]pyridin-4-yl]-phenoxy}-acetic acid] yielded an IC50 of 8.9 nM.
Take `O=C(O)COc1ccc(F)cc1C1c2scnc2CCN1C(=O)OCc1ccccc1` (racemic) [Example 118, (±)-4-(2-Carboxymethoxy-5-fluoro-phenyl)-6,7-dihydro-4H-thiazolo[5,4-c]pyridine-5-carboxylic acid benzyl ester]: the IC50 came out at 8.3 nM.
The result for `O=C(O)COc1ccc(Cl)cc1C1c2scnc2CCN1C(=O)CC1(c2ccccc2)CC1` (racemic) [Example 37, (±)-(4-Chloro-2-{5-[2-(1-phenyl-cyclopropyl)-acetyl]-4,5,6,7-tetrahydro-thiazolo[5,4-c]pyridin-4-yl}-phenoxy)-acetic acid] reads 130 nM.
For the molecule `CC(C)COC(=O)N1CCc2ncsc2C1c1cc(Cl)ccc1OCC(=O)O` (racemic) [Example 98, (±)-4-(2-Carboxymethoxy-5-chloro-phenyl)-6,7-dihydro-4H-thiazolo[5,4-c]pyridine-5-carboxylic acid isobutyl ester], the IC50 was determined as 17.8 nM.
In turn, `O=C(O)COc1ccc(Cl)cc1[C@@H]1c2scnc2CCN1C(=O)OCC1CCC1` [Example 69, (R)-4-(2-Carboxymethoxy-5-chloro-phenyl)-6,7-dihydro-4H-thiazolo[5,4-c]pyridine-5-carboxylic acid cyclobutylmethyl ester] displayed an IC50 of 4.2 nM.
The result for `O=C(O)COc1ccc(Cl)cc1C1c2sc(NS(=O)(=O)C3CC3)nc2CCN1C(=O)OCc1ccccc1` (racemic) [Example 114, (±)-4-(2-Carboxymethoxy-5-chloro-phenyl)-2-cyclopropanesulfonylamino-6,7-dihydro-4H-thiazolo[5,4-c]pyridine-5-carboxylic acid benzyl ester] reads 678 nM; that for `O=C(O)COc1ccc(Cl)cc1C1c2scnc2CCN1C(=O)CC1CCCCC1` (racemic) [Example 48, (±)-{4-Chloro-2-[5-(2-cyclohexyl-acetyl)-4,5,6,7-tetrahydro-thiazolo[5,4-c]pyridin-4-yl]-phenoxy}-acetic acid], 73 nM.
Turning to `CC1(C)CC1C(=O)N1CCc2ncsc2C1c1cc(Cl)ccc1OCC(=O)O` (racemic) [Example 47, (±)-{4-Chloro-2-[(±)-5-(2,2-dimethyl-cyclopropanecarbonyl)-4,5,6,7-tetrahydro-thiazolo[5,4-c]pyridin-4-yl]-phenoxy}-acetic acid], the half-maximal inhibitory concentration (IC50) stood at 37.1 nM.
Turning to `O=C(O)COc1ccc(Cl)cc1C1c2sc(C3CC3)nc2CCN1C(=O)OCc1ccccc1` (racemic) [Example 14, (±)-4-(2-Carboxymethoxy-5-chloro-phenyl)-2-cyclopropyl-6,7-dihydro-4H-thiazolo[5,4-c]pyridine-5-carboxylic acid benzyl ester], the IC50 was found to be 65.7 nM.
In the case of `Cc1nc2c(s1)[C@H](c1cc(Cl)ccc1OCC(=O)O)N(C(=O)OCc1ccccc1)CC2` [Example 18, (S)-4-(2-Carboxymethoxy-5-chloro-phenyl)-2-methyl-6,7-dihydro-4H-thiazolo[5,4-c]pyridine-5-carboxylic acid benzyl ester], the IC50 stood at 655 nM.
In turn, `Cc1nc2c(s1)[C@H](c1cc(Cl)ccc1OCC(=O)O)N(C(=O)[C@@H]1C[C@H]1c1ccccc1)CC2` [Example 11, {4-Chloro-2-[(S)-2-methyl-5-((1R,2R)-2-phenyl-cyclopropanecarbonyl)-4,5,6,7-tetrahydro-thiazolo[5,4-c]pyridin-4-yl]-phenoxy}-acetic acid] had an IC50 of 570 nM.
To `Cc1ccc(COC(=O)N2CCc3ncsc3C2c2cc(Cl)ccc2OCC(=O)O)c(C)c1` (racemic) [Example 100, (±)-4-(2-Carboxymethoxy-5-chloro-phenyl)-6,7-dihydro-4H-thiazolo[5,4-c]pyridine-5-carboxylic acid 2,4-dimethyl-benzyl ester] belongs 7.1 nM; to `O=C(O)COc1ccc(Cl)cc1[C@@H]1c2scnc2CCN1C(=O)OCc1cccc(F)c1F` [Example 71, (R)-4-(2-Carboxymethoxy-5-chloro-phenyl)-6,7-dihydro-4H-thiazolo[5,4-c]pyridine-5-carboxylic acid 2,3-difluoro-benzyl ester], 0.5 nM; to `COC(C)(C)CCOC(=O)N1CCc2ncsc2[C@H]1c1cc(Cl)ccc1OCC(=O)O` [Example 62, (R)-4-(2-Carboxymethoxy-5-chloro-phenyl)-6,7-dihydro-4H-thiazolo[5,4-c]pyridine-5-carboxylic acid 3-methoxy-3-methyl-butyl ester], 4.8 nM.
The result for `CCc1nc2c(s1)C(c1cc(Cl)ccc1OCC(=O)O)N(C(=O)OCc1ccccc1)CC2` (racemic) [Example 16, (±)-4-(2-Carboxymethoxy-5-chloro-phenyl)-2-ethyl-6,7-dihydro-4H-thiazolo[5,4-c]pyridine-5-carboxylic acid benzyl ester] reads 14.2 nM.
In the case of `CS(=O)(=O)Nc1nc2c(s1)C(c1cc(Cl)ccc1OCC(=O)O)N(C(=O)OCc1ccccc1)CC2` (racemic) [Example 113, (±)-4-(2-Carboxymethoxy-5-chloro-phenyl)-2-methanesulfonylamino-6,7-dihydro-4H-thiazolo[5,4-c]pyridine-5-carboxylic acid benzyl ester], the IC50 was found to be 254 nM.
The result for `C[C@H](CC(=O)N1CCc2ncsc2C1c1cc(Cl)ccc1OCC(=O)O)c1ccccc1` (mixture of isomers) [Example 38, (±)-{4-Chloro-2-[5-((R)-3-phenyl-butyryl)-4,5,6,7-tetrahydro-thiazolo[5,4-c]pyridin-4-yl]-phenoxy}-acetic acid] reads 12.2 nM.
